This is an account of results in patent US10377753B2, “Substituted 4-azaindoles and their use as GluN2B receptor modulators” (Janssen Pharmaceutica NV, priority 2015, dated 2019).

Where a name gives a salt, the structure may show the parent alone.

Chain of cloned human NR1/NR2B ion channels (Q13224 27-1484, other chains not shown): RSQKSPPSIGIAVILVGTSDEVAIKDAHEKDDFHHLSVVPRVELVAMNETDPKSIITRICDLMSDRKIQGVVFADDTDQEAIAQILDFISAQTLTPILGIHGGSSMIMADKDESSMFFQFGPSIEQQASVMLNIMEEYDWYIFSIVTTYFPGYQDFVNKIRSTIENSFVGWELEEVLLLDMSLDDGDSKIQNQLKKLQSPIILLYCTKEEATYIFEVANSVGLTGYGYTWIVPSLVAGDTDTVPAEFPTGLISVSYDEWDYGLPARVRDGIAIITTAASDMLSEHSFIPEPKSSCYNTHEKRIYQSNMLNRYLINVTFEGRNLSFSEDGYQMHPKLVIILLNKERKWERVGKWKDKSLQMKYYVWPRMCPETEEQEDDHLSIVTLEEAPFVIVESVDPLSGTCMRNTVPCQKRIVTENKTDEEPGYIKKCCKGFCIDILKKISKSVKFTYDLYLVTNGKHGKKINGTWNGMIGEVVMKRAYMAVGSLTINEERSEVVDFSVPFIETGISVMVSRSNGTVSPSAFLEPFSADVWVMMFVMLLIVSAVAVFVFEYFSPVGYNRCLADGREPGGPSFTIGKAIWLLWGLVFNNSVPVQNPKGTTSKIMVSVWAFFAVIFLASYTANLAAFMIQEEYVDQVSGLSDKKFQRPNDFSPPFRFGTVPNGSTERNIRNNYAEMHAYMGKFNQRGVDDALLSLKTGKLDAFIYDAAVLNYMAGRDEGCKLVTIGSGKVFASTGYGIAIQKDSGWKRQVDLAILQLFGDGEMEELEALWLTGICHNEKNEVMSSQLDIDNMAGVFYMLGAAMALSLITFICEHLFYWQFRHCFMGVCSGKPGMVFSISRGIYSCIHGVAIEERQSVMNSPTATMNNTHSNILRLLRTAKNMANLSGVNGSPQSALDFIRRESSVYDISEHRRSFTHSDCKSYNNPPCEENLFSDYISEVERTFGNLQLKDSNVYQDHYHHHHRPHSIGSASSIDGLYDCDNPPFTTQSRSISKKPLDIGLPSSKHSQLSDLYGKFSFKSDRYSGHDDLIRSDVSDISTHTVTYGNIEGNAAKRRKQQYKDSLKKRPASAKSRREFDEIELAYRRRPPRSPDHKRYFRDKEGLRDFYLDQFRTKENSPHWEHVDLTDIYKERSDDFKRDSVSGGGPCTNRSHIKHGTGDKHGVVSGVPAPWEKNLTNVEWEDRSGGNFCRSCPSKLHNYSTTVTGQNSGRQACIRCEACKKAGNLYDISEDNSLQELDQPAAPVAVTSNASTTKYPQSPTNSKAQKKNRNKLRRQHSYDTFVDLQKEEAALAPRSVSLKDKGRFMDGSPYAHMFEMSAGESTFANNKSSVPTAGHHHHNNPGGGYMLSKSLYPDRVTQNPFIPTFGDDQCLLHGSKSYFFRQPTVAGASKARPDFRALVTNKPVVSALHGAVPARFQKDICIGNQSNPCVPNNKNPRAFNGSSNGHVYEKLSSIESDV

One experiment concerns the target cloned human NR1/NR2B ion channels (Homo sapiens (Human), UniProt Q05586+Q13224). Kind of experiment: HNR2BC: effects of test articles on cloned human NR1/NR2B ion channels expressed in mammalian cells (FLIPR calcium flux). The experiment is classed as cell-based. To be noted: cloned human NR1/NR2B ion channels, Table 5. An outline of the steps: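 Compounds were added to dye-loaded cells for 5 min with fluorescence monitored for agonism, followed by co-agonists (glutamate ~EC80, glycine 10 μM saturating) for 5 min. Cells stably expressed inducible human NR1/NR2B, and the buffer was pH 7.4. The FLIPR Ca2+ flux signal was normalized against control wells.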
In general terms: A change in cytosolic calcium serves as a functional read-out for many receptors and channels.
Usually IC50 stands for the concentration that gives 50% inhibition. Regarding `O=C(Cn1ccc2ncc(-c3ccc(F)c(F)c3)cc21)N1CCCC1` [Example 367, 2-[6-(3,4-Difluorophenyl)pyrrolo[3,2-b]pyridin-1-yl]-1-pyrrolidin-1-yl-ethanone], the IC50 was 50.1 nM.

For `Cc1csc(-c2cnc3ccn(CC(=O)N4CC(F)(F)C4)c3c2)c1` [Example 368, 1-(3,3-Difluoroazetidin-1-yl)-2-[6-(4-methyl-2-thienyl)pyrrolo[3,2-b]pyridin-1-yl]ethanone], the IC50 is 25.1 nM.

For the compound `Cc1csc(-c2cnc3ccn(CC(=O)N4CCCC4)c3c2)c1` [Example 369, 2-[6-(4-Methyl-2-thienyl)pyrrolo[3,2-b]pyridin-1-yl]-1-pyrrolidin-1-yl-ethanone], the IC50 was 20 nM.

For the compound `Cc1csc(-c2cnc3ccn(CC(=O)N4CC(F)C4)c3c2)c1` [Example 370, 1-(3-Fluoroazetidin-1-yl)-2-[6-(4-methyl-2-thienyl)pyrrolo[3,2-b]pyridin-1-yl]ethanone], the half-inhibitory concentration (IC50) was 31.6 nM.

Turning to `O=C(Cn1ccc2ncc(-c3cc(F)c(F)c(F)c3)cc21)N1CC(F)C1` [Example 371, 1-(3-Fluoroazetidin-1-yl)-2-[6-(3,4,5-trifluorophenyl)pyrrolo[3,2-b]pyridin-1-yl]ethanone], the concentration for half-maximal inhibition (IC50) was 15.8 nM.

In the case of `O=C(Cn1ccc2ncc(-c3ccc(Cl)s3)cc21)N1CC(F)C1` [Example 372, 2-[6-(5-Chloro-2-thienyl)pyrrolo[3,2-b]pyridin-1-yl]-1-(3-fluoroazetidin-1-yl)ethanone], the concentration for half-maximal inhibition (IC50) is 15.8 nM.

On to `O=C(Cn1ccc2ncc(-c3ccc(Cl)s3)cc21)N1CCC1` [Example 373, 1-(Azetidin-1-yl)-2-[6-(5-chloro-2-thienyl)pyrrolo[3,2-b]pyridin-1-yl]ethanone], for which the concentration for half-maximal inhibition (IC50) was 20 nM.

Take `O=C(Cn1cc(Cl)c2ncc(-c3ccc(F)c(F)c3F)cc21)N1CC(F)C1` [Example 374, 2-[3-Chloro-6-(2,3,4-trifluorophenyl)pyrrolo[3,2-b]pyridin-1-yl]-1-(3-fluoroazetidin-1-yl)ethanone]: the 50% inhibitory concentration (IC50) was 20 nM.

For the compound `CN(C)C(=O)Cn1ccc2ncc(-c3cc(F)c(F)c(F)c3)cc21` [Example 375, N,N-Dimethyl-2-[6-(3,4,5-trifluorophenyl)pyrrolo[3,2-b]pyridin-1-yl]acetamide], the half-inhibitory concentration (IC50) was 12.6 nM.

As to `CN(C)C(=O)Cn1ccc2ncc(-c3cc(F)cc(F)c3)cc21` [Example 376, 2-[6-(3,5-Difluorophenyl)pyrrolo[3,2-b]pyridin-1-yl]-N,N-dimethyl-acetamide], the IC50 is 20 nM.

With `CN(C)C(=O)Cn1ccc2ncc(-c3cccc(C(F)F)c3)cc21` [Example 377, 2-[6-[3-(Difluoromethyl)phenyl]pyrrolo[3,2-b]pyridin-1-yl]-N,N-dimethyl-acetamide], the IC50 was 10 nM.

As for `Cc1ccc(-c2cnc3ccn(CC(=O)N4CCC4)c3c2)s1` [Example 380, 1-(Azetidin-1-yl)-2-[6-(5-methyl-2-thienyl)pyrrolo[3,2-b]pyridin-1-yl]ethanone], the half-maximal inhibitory concentration (IC50) is 10 nM.

For `O=C(Cn1cc(Cl)c2ncc(-c3ccc(Cl)s3)cc21)N1CCC1` [Example 381, 1-(Azetidin-1-yl)-2-[3-chloro-6-(5-chloro-2-thienyl)pyrrolo[3,2-b]pyridin-1-yl]ethanone], the half-maximal inhibitory concentration (IC50) is 15.8 nM.

Turning to `O=C(Cn1cc(F)c2ncc(-c3ccc(F)c(F)c3)cc21)N1CCC1` [Example 382, 1-(Azetidin-1-yl)-2-[6-(3,4-difluorophenyl)-3-fluoro-pyrrolo[3,2-b]pyridin-1-yl]ethanone], the IC50 is 15.8 nM.

Take `O=C(Cn1cc(F)c2ncc(-c3cc(F)c(F)c(F)c3)cc21)N1CCC1` [Example 383, 1-(Azetidin-1-yl)-2-[3-fluoro-6-(3,4,5-trifluorophenyl)pyrrolo[3,2-b]pyridin-1-yl]ethanone]: the half-maximal inhibitory concentration (IC50) was 15.8 nM.

In the case of `O=C(Cn1cc(Cl)c2ncc(-c3ccc(F)cc3)cc21)C1CC1` [Example 384, 2-[3-Chloro-6-(4-fluorophenyl)pyrrolo[3,2-b]pyridin-1-yl]-1-cyclopropyl-ethanone], the concentration for half-maximal inhibition (IC50) is 20 nM.

As for `O=C(Cn1ccc2ncc(-c3ccsc3)cc21)N1CCC1` [Example 385, 1-(Azetidin-1-yl)-2-[6-(3-thienyl)pyrrolo[3,2-b]pyridin-1-yl]ethanone trifluoroacetate salt], the 50% inhibitory concentration (IC50) is 20 nM.

As to `CN(C)C(=O)Cn1cc(F)c2ncc(-c3cccs3)cc21` [Example 387, 2-[3-Fluoro-6-(2-thienyl)pyrrolo[3,2-b]pyridin-1-yl]-N,N-dimethyl-acetamide], the IC50 was 63.1 nM.

In the case of `CCc1ccc(-c2cnc3ccn(CC(=O)N(C)C)c3c2)s1` [Example 388, 2-[6-(5-Ethyl-2-thienyl)pyrrolo[3,2-b]pyridin-1-yl]-N,N-dimethyl-acetamide trifluoroacetate salt], the IC50 is 794 nM.

`O=C(Cn1cc(F)c2ncc(-c3cccs3)cc21)N1CCC1` [Example 389, 1-(Azetidin-1-yl)-2-[3-fluoro-6-(2-thienyl)pyrrolo[3,2-b]pyridin-1-yl]ethanone trifluoroacetate salt]: the IC50 was 158 nM.

Take `Cc1ccc(-c2cnc3c(F)cn(CC(=O)N(C)C)c3c2)s1` [Example 390, 2-[3-Fluoro-6-(5-methyl-2-thienyl)pyrrolo[3,2-b]pyridin-1-yl]-N,N-dimethyl-acetamide]: the IC50 is 316 nM.

For `CN(C)C(=O)Cn1ccc2ncc(-c3cc(Cl)cs3)cc21` [Example 391, 2-[6-(4-Chloro-2-thienyl)pyrrolo[3,2-b]pyridin-1-yl]-N,N-dimethyl-acetamide trifluoroacetate salt], the IC50 was 50.1 nM.

Turning to `CCc1ccc(-c2cnc3ccn(CC(=O)N4CCC4)c3c2)s1` [Example 392, 1-(Azetidin-1-yl)-2-[6-(5-ethyl-2-thienyl)pyrrolo[3,2-b]pyridin-1-yl]ethanone trifluoroacetate salt], the 50% inhibitory concentration (IC50) is 63.1 nM.

For the compound `CCc1ccc(-c2cnc3c(F)cn(CC(=O)N(C)C)c3c2)s1` [Example 393, 2-[6-(5-Ethyl-2-thienyl)-3-fluoro-pyrrolo[3,2-b]pyridin-1-yl]-N,N-dimethyl-acetamide], the 50% inhibitory concentration (IC50) is 126 nM.

Take `O=C(Cn1ccc2ncc(-c3cc(Cl)cs3)cc21)N1CCC1` [Example 394, 1-(Azetidin-1-yl)-2-[6-(4-chloro-2-thienyl)pyrrolo[3,2-b]pyridin-1-yl]ethanone trifluoroacetate salt]: the half-maximal inhibitory concentration (IC50) is 158 nM.

Take `O=C(Cn1cc(F)c2ncc(-c3cccs3)cc21)N1CC(F)C1` [Example 395, 1-(3-Fluoroazetidin-1-yl)-2-[3-fluoro-6-(2-thienyl)pyrrolo[3,2-b]pyridin-1-yl]ethanone trifluoroacetate salt]: the 50% inhibitory concentration (IC50) was 50.1 nM.

Regarding `CN(C)C(=O)Cn1cc(F)c2ncc(-c3cc(Cl)cs3)cc21` [Example 396, 2-[6-(4-Chloro-2-thienyl)-3-fluoro-pyrrolo[3,2-b]pyridin-1-yl]-N,N-dimethyl-acetamide], the IC50 was 501 nM.

As to `O=C(Cn1cc(F)c2ncc(-c3cc(Cl)cs3)cc21)N1CCC1` [Example 397, 1-(Azetidin-1-yl)-2-[6-(4-chloro-2-thienyl)-3-fluoro-pyrrolo[3,2-b]pyridin-1-yl]ethanone trifluoroacetate salt], the IC50 was 50.1 nM.

The experiment is the same for the next values; noted with them: cloned human NR1/NR2B, Table 5.
As to `Cc1cccc(-c2cnc3ccn(CC(=O)N4CCC4)c3c2)c1` [Example 356, 1-(Azetidin-1-yl)-2-[6-(m-tolyl)pyrrolo[3,2-b]pyridin-1-yl]ethanone trifluoroacetate salt], the IC50 is 20 nM.

Take `O=C(Cn1ccc2ncc(-c3ccc(Cl)c(Cl)c3)cc21)N1CCC1` [Example 357, 1-(Azetidin-1-yl)-2-[6-(3,4-dichlorophenyl)pyrrolo[3,2-b]pyridin-1-yl]ethanone trifluoroacetate salt]: the IC50 is 20 nM.

As for `O=C(Cn1ccc2ncc(-c3cccc(C(F)(F)F)c3F)cc21)N1CCC1` [Example 358, 1-(Azetidin-1-yl)-2-[6-[2-fluoro-3-(trifluoromethyl)phenyl]pyrrolo[3,2-b]pyridin-1-yl]ethanone trifluoroacetate salt], the half-inhibitory concentration (IC50) was 39.8 nM.

Consider `Cc1csc(-c2cnc3ccn(CC(=O)N4CCC4)c3c2)c1` [Example 359, 1-(Azetidin-1-yl)-2-[6-(4-methyl-2-thienyl)pyrrolo[3,2-b]pyridin-1-yl]ethanone trifluoroacetate salt], for which the IC50 was 31.6 nM.

Turning to `Cc1cc(-c2cnc3c(Cl)cn(CC(=O)N4CCC4)c3c2)ccc1F` [Example 360, 1-(Azetidin-1-yl)-2-[3-chloro-6-(4-fluoro-3-methyl-phenyl)pyrrolo[3,2-b]pyridin-1-yl]ethanone], the half-inhibitory concentration (IC50) is 31.6 nM.

For the compound `O=C(Cn1ccc2ncc(-c3ccc(F)c(F)c3)cc21)N1CC(F)(F)C1` [Example 361, 1-(3,3-Difluoroazetidin-1-yl)-2-[6-(3,4-difluorophenyl)pyrrolo[3,2-b]pyridin-1-yl]ethanone], the IC50 is 25.1 nM.

With `O=C(Cn1ccc2ncc(-c3cccc(C(F)(F)F)n3)cc21)N1CCC1` [Example 362, 1-(Azetidin-1-yl)-2-[6-[6-(trifluoromethyl)-2-pyridyl]pyrrolo[3,2-b]pyridin-1-yl]ethanone], the 50% inhibitory concentration (IC50) is 31.6 nM.

Turning to `O=C(Cn1ccc2ncc(-c3cc(F)c(F)c(F)c3)cc21)N1CCC1` [Example 363, 1-(Azetidin-1-yl)-2-[6-(3,4,5-trifluorophenyl)pyrrolo[3,2-b]pyridin-1-yl]ethanone], the IC50 is 79.4 nM.

In the case of `CC(C)C(=O)Cn1ccc2ncc(-c3cc(F)cc(F)c3)cc21` [Example 364, 1-[6-(3,5-Difluorophenyl)pyrrolo[3,2-b]pyridin-1-yl]-3-methyl-butan-2-one], the half-maximal inhibitory concentration (IC50) was 20 nM.

In the case of `O=C(Cn1ccc2ncc(-c3ccc(F)cc3)cc21)C1CCC1` [Example 365, 1-Cyclobutyl-2-[6-(4-fluorophenyl)pyrrolo[3,2-b]pyridin-1-yl]ethanone], the IC50 is 20 nM.

Regarding `CCc1cccc(-c2cnc3ccn(CC(=O)NC4CC4)c3c2)c1` [Example 366, N-Cyclopropyl-2-[6-(3-ethylphenyl)pyrrolo[3,2-b]pyridin-1-yl]acetamide], the concentration for half-maximal inhibition (IC50) is 31.6 nM.
